Laboratory results reported in ChEMBL document CHEMBL3351251, “3-Arylcoumarins: synthesis and potent anti-inflammatory activity” (Bioorg Med Chem Lett, 2014).
pIC50: −log10 of the molar value.

What was measured:
RAW264.7 [1] = experiment: Anti-inflammatory activity in mouse RAW264.7 cells assessed as inhibition of LPS-induced nitric oxide production at 5 mg/L pre-incubated for 2 hrs before LPS stimulation for 24 hrs; assay type: functional
[2] = Cytotoxicity against LPS-stimulated mouse RAW264.7 cells assessed as cell viability at 5 mg/L incubated for 24 hrs by alamar blue assay; assay type: cell-based; details: LPS-stimulated RAW264.7 cells, read-out: Activity
RAW264.7 [3] = experiment: Anti-inflammatory activity in mouse RAW264.7 cells assessed as inhibition of LPS-induced nitric oxide production pre-incubated for 2 hrs before LPS stimulation for 24 hrs; assay type: functional, cell-based

pIC50 (RAW264.7 [3]) | SMILES | inhibition at 5 µg/mL (RAW264.7 [1]) [%] | viability at 24 h, 5 mg/L [2] [%]
 | COc1ccc(-c2cc3ccccc3oc2=O)cc1OC | 47.4 | 47
 | COc1ccc(-c2cc3cccc(OC)c3oc2=O)cc1 | 44.6 | 81.3
 | COc1cccc2cc(-c3ccccc3)c(=O)oc12 | 78.4 | 64.5
 | COc1ccc(-c2cc3ccccc3oc2=O)cc1 | 59.6 | 93.4
 | COc1cc(Br)cc2cc(-c3ccccc3)c(=O)oc12 | 111 | 29.6
 | COc1ccc(-c2cc3cc(Br)cc(OC)c3oc2=O)cc1 | 44.2 | 99.9
 | COc1ccc(-c2cc3cc(Cl)cc(Cl)c3oc2=O)cc1OC | 27.3 | 118
 | COc1ccc(-c2cc3cc(Cl)ccc3oc2=O)cc1 | 47.5 | 102
 | COc1ccc(-c2cc3cccc(OC)c3oc2=O)cc1OC | 32.3 | 87.7
 | COc1cccc(-c2cc3cccc(OC)c3oc2=O)c1 | 91.4 | 34.2
 | COc1cc(-c2cc3cccc(OC)c3oc2=O)cc(OC)c1OC | 52 | 54.4
 | COc1cccc2cc(-c3ccc(Cl)cc3)c(=O)oc12 | 61.7 | 93.5
 | COc1cccc2cc(-c3ccc(F)cc3)c(=O)oc12 | 47.6 | 127
 | COc1ccc(-c2cc3cc(Cl)ccc3oc2=O)cc1OC | 31.2 | 105
 | COc1ccccc1-c1cc2cc(Cl)ccc2oc1=O | 65.7 | 115
 | COc1cc(-c2cc3cc(Cl)ccc3oc2=O)cc(OC)c1OC | 57.6 | 78.4
 | O=c1oc2ccc(Cl)cc2cc1-c1ccc(Cl)cc1 | 12.1 | 114
 | COc1ccc(-c2cc3cc(Cl)cc(Cl)c3oc2=O)cc1 | 20.8 | 99.3

pIC50 (RAW264.7 [3]) | SMILES | inhibition at 5 µg/mL (RAW264.7 [1]) [%] | viability at 24 h, 5 mg/L [2] [%]
 | COc1cccc(-c2cc3cc(Cl)cc(Cl)c3oc2=O)c1 | 36 | 105
5.07 | COc1ccccc1-c1cc2cc(Cl)cc(Cl)c2oc1=O | 76.9 | 119
 | O=c1oc2c(Cl)cc(Cl)cc2cc1-c1ccccc1 | 53.4 | 104
 | COc1cccc(-c2cc3ccccc3oc2=O)c1 | 49.2 | 48.4
 | O=c1oc2ccccc2cc1-c1ccc(F)cc1 | 9.98 | 110
 | COc1ccc(-c2cc3cc(Br)cc(OC)c3oc2=O)cc1OC | 53.5 | 98
5.16 | COc1cccc(-c2cc3cc(Br)cc(OC)c3oc2=O)c1 | 72.3 | 116
 | COc1ccccc1-c1cc2cc(Br)cc(OC)c2oc1=O | 47.6 | 95.7
 | COc1cc(-c2cc3cc(Br)cc(OC)c3oc2=O)cc(OC)c1OC | 47.3 | 115
 | COc1cc(Br)cc2cc(-c3ccc(F)cc3)c(=O)oc12 | 33.9 | 103
 | COc1cc(Br)cc2cc(-c3cccc(OC(C)=O)c3)c(=O)oc12 | 84.1 | 66.5
 | COc1cc(Br)cc2cc(-c3cccc(O)c3)c(=O)oc12 | 116 | 28.5
 | COc1cc(Br)cc2cc(-c3ccc(OC(C)=O)cc3)c(=O)oc12 | 77.8 | 61.7
 | COc1cc(Br)cc2cc(-c3ccc(O)cc3)c(=O)oc12 | 91.3 | 24.4
 | COc1ccc(OC)c(-c2cc3cc(Br)cc(OC)c3oc2=O)c1 | 45.9 | 93.5
 | COc1cc(Br)cc2cc(-c3cccnc3)c(=O)oc12 | 58.6 | 84.9
 | O=c1oc2ccccc2cc1-c1ccccc1 | 69.5 | 104
5.21 | COc1cc(/C=C/C(=O)CC(=O)/C=C/c2ccc(O)c(OC)c2)ccc1O [CURCUMIN] | 77 | 
